Values joined by “and” are separate entries in the source; they are usually repeats but may differ in a detail not shown here. Equal entries are not always repeated. Structures can show the parent of a compound that is named as a salt. Where two headings read alike, the source gives them in different places.
Experiments:
[1] = target: (e1-BB2) BB3* loss-of-affinity chimera (Homo sapiens, UniProt P32247, E111D/G112R/H107K/H294R/T106S); experiment: 125I-peptide #1 competition binding, CHOP cells; parameters: species or system mouse; conditions: EC1 of BB3* replaced by EC1 of BB2, vs BB3*
[2] = target: (e2-BB2) BB3* loss-of-affinity chimera (Homo sapiens, UniProt P32247, D193V/E201I/E215K/H294R/K196T/K210N/K211E/L213H/L219M/L220A/M198Q/N187D/N195D/P194K/Q214P/R192H/S205P/T190P/T204A/V188L/V208H/Y189H); experiment: 125I-peptide #1 competition binding, CHOP cells; parameters: species or system mouse; conditions: EC2 of BB3* replaced by EC2 of BB2, vs BB3*
[3] = tested on: (e1-BB3) BB2 gain-of-affinity chimera; experiment: 125I-peptide #1 competition binding, CHOP cells; parameters: species or system human, mouse; conditions: EC1 of BB2 replaced by EC1 of BB3, vs wild type BB2
[H107K] BB3* receptor = [H107K] BB3* receptor (Homo sapiens, UniProt P32247, H107K/H294R); experiment: 125I-peptide #1 competition binding, CHOP cells
[4] = target: [H107K] wild type BB3 receptor (Homo sapiens, UniProt P32247, H107K); experiment: 125I-peptide #1 competition binding, CHOP cells
[H107D] BB3* receptor = [H107D] BB3* receptor (Homo sapiens, UniProt P32247, H107D/H294R); experiment: 125I-peptide #1 competition binding, CHOP cells
[5] = target: [H107F] wild type BB3 receptor (Homo sapiens, UniProt P32247, H107F); experiment: 125I-peptide #1 competition binding, CHOP cells
[6] = target: [H107Y] wild type BB3 receptor (Homo sapiens, UniProt P32247, H107Y); experiment: 125I-peptide #1 competition binding, CHOP cells
[7] = target: [H107K, G112R] BB3* receptor (Homo sapiens, UniProt P32247, G112R/H107K/H294R); experiment: 125I-peptide #1 competition binding, CHOP cells
[8] = target: [H107K, G112R] wild type BB3 receptor (Homo sapiens, UniProt P32247, G112R/H107K); experiment: 125I-peptide #1 competition binding, CHOP cells
[L123I] BB3* receptor = [L123I] BB3* receptor (Homo sapiens, UniProt P32247, H294R/L123I); experiment: 125I-peptide #1 competition binding, CHOP cells
[9] = target: [V101A] wild type BB3 receptor (Homo sapiens, UniProt P32247, V101A); experiment: 125I-peptide #1 competition binding, CHOP cells
[S124P] BB3* receptor = [S124P] BB3* receptor (Homo sapiens, UniProt P32247, H294R/S124P); experiment: 125I-peptide #1 competition binding, CHOP cells
[R127K] BB3* receptor = [R127K] BB3* receptor (Homo sapiens, UniProt P32247, H294R/R127K); experiment: 125I-peptide #1 competition binding, CHOP cells
[10] = target: [R127K] wild type BB3 receptor (Homo sapiens, UniProt P32247, R127K); experiment: 125I-peptide #1 competition binding, CHOP cells
[R127N] BB3* receptor = [R127N] BB3* receptor (Homo sapiens, UniProt P32247, H294R/R127N); experiment: 125I-peptide #1 competition binding, CHOP cells
[11] = target: [R127N] wild type BB3 receptor (Homo sapiens, UniProt P32247, R127N); experiment: 125I-peptide #1 competition binding, CHOP cells
[R127H] BB3* receptor = [R127H] BB3* receptor (Homo sapiens, UniProt P32247, H294R/R127H); experiment: 125I-peptide #1 competition binding, CHOP cells
[12] = target: [R127H] wild type BB3 receptor (Homo sapiens, UniProt P32247, R127H); experiment: 125I-peptide #1 competition binding, CHOP cells
[13] = target: BB3 and BB3* receptors and their mutants (Homo sapiens, UniProt P32247, H294R/R127H); conditions: [R127H], background not stated (discussion)
[14] = target: BB3 and BB3* receptors and their mutants (Homo sapiens, UniProt P32247, H294R/R127K); conditions: [R127K], background not stated (discussion)
[15] = tested on: BB3 and BB3* receptors and their mutants

Chain of (e1-BB2) BB3* loss-of-affinity chimera (P32247 whole entry T106S/H107K/E111D/G112R/H294R): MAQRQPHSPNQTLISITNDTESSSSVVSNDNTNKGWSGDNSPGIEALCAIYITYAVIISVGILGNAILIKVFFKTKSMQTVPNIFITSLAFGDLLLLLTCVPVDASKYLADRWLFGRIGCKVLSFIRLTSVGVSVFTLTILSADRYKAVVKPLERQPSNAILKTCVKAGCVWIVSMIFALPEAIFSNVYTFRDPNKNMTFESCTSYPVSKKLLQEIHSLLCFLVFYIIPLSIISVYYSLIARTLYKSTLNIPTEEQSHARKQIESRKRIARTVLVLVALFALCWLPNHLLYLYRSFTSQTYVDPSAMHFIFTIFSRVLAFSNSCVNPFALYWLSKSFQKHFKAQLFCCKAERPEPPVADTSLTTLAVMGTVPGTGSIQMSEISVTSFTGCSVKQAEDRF
Chain of [V101A] wild type BB3 receptor (P32247 whole entry V101A): as the sequence (P32247 whole entry T106S/H107K/E111D/G112R/H294R) above, with V101A, S106T, K107H, D111E, R112G, R294H counted along it
Chain of [R127N] wild type BB3 receptor (P32247 whole entry R127N): as the sequence (P32247 whole entry T106S/H107K/E111D/G112R/H294R) above, with S106T, K107H, D111E, R112G, R127N, R294H counted along it
Chain of BB3 and BB3* receptors and their mutants (Homo sapiens, UniProt P32247, H294R/R127H) (P32247 whole entry R127H/H294R): as the sequence (P32247 whole entry T106S/H107K/E111D/G112R/H294R) above, with S106T, K107H, D111E, R112G, R127H counted along it
Chain of [R127H] BB3* receptor (P32247 whole entry R127H/H294R): as the sequence (P32247 whole entry T106S/H107K/E111D/G112R/H294R) above, with S106T, K107H, D111E, R112G, R127H counted along it
Chain of [H107K, G112R] wild type BB3 receptor (P32247 whole entry H107K/G112R): as the sequence (P32247 whole entry T106S/H107K/E111D/G112R/H294R) above, with S106T, D111E, R294H counted along it
Chain of [H107K] BB3* receptor (P32247 whole entry H107K/H294R): as the sequence (P32247 whole entry T106S/H107K/E111D/G112R/H294R) above, with S106T, D111E, R112G counted along it
Chain of [S124P] BB3* receptor (P32247 whole entry S124P/H294R): as the sequence (P32247 whole entry T106S/H107K/E111D/G112R/H294R) above, with S106T, K107H, D111E, R112G, S124P counted along it
Chain of [H107Y] wild type BB3 receptor (P32247 whole entry H107Y): as the sequence (P32247 whole entry T106S/H107K/E111D/G112R/H294R) above, with S106T, K107Y, D111E, R112G, R294H counted along it
Chain of [R127H] wild type BB3 receptor (P32247 whole entry R127H): as the sequence (P32247 whole entry T106S/H107K/E111D/G112R/H294R) above, with S106T, K107H, D111E, R112G, R127H, R294H counted along it
Chain of (e2-BB2) BB3* loss-of-affinity chimera (P32247 1-399 with the stated changes): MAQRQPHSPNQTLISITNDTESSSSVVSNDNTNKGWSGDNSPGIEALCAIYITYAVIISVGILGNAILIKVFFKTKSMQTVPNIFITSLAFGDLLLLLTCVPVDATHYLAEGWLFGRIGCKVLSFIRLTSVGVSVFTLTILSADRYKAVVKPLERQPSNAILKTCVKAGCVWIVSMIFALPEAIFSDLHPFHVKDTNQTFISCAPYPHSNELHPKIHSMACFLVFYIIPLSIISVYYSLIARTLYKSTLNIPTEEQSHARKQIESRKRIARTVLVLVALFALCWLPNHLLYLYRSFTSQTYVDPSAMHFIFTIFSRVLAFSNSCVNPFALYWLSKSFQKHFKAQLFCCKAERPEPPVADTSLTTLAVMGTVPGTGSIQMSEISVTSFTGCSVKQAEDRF
Chain of BB3 and BB3* receptors and their mutants (Homo sapiens, UniProt P32247, H294R/R127K) (P32247 whole entry R127K/H294R): as the sequence (P32247 whole entry T106S/H107K/E111D/G112R/H294R) above, with S106T, K107H, D111E, R112G, R127K counted along it
Chain of [R127K] BB3* receptor (P32247 whole entry R127K/H294R): as the sequence (P32247 whole entry T106S/H107K/E111D/G112R/H294R) above, with S106T, K107H, D111E, R112G, R127K counted along it
Chain of [H107F] wild type BB3 receptor (P32247 whole entry H107F): as the sequence (P32247 whole entry T106S/H107K/E111D/G112R/H294R) above, with S106T, K107F, D111E, R112G, R294H counted along it
Chain of [H107K, G112R] BB3* receptor (P32247 whole entry H107K/G112R/H294R): as the sequence (P32247 whole entry T106S/H107K/E111D/G112R/H294R) above, with S106T, D111E counted along it
Chain of [H107K] wild type BB3 receptor (P32247 whole entry H107K): as the sequence (P32247 whole entry T106S/H107K/E111D/G112R/H294R) above, with S106T, D111E, R112G, R294H counted along it
Chain of [L123I] BB3* receptor (P32247 whole entry L123I/H294R): as the sequence (P32247 whole entry T106S/H107K/E111D/G112R/H294R) above, with S106T, K107H, D111E, R112G, L123I counted along it
Chain of [H107D] BB3* receptor (P32247 whole entry H107D/H294R): as the sequence (P32247 whole entry T106S/H107K/E111D/G112R/H294R) above, with S106T, K107D, D111E, R112G counted along it
Chain of [R127K] wild type BB3 receptor (P32247 whole entry R127K): as the sequence (P32247 whole entry T106S/H107K/E111D/G112R/H294R) above, with S106T, K107H, D111E, R112G, R127K, R294H counted along it
Chain of [R127N] BB3* receptor (P32247 whole entry R127N/H294R): as the sequence (P32247 whole entry T106S/H107K/E111D/G112R/H294R) above, with S106T, K107H, D111E, R112G, R127N counted along it

Structure (SMILES): CC(C)C[C@H](NC(=O)C[C@H](O)[C@H](CC1CCCCC1)NC(=O)[C@H](Cc1c[nH]cn1)NC(=O)[C@H](Cc1ccccc1)NC(=O)OC(C)(C)C)C(=O)NCc1cccc([N+](C)(C)C)c1 [Bantag-1, Boc-Phe-His-4-amino-5-cyclohexyl-2,4,5-trideoxypentonyl-Leu- (3-dimethylamino) benzylamide N-methylammonium trifluoroacetate]
- decrease in affinity [1]: 377 fold and > 377 fold and > 400 fold
- decrease in affinity [2]: 23 fold
- increase in affinity [3]: 5 fold
- decrease in affinity ([H107K] BB3* receptor): 54 fold
- decrease in affinity [4]: 35 fold
- decrease in affinity ([H107D] BB3* receptor): > 192 fold
- decrease in affinity [5]: 4 fold
- decrease in affinity [6]: 13 fold
- decrease in affinity [7]: 250 fold
- decrease in affinity [8]: 68 fold
- decrease in affinity ([L123I] BB3* receptor): 4 fold
- decrease in affinity [9]: 179 fold
- decrease in affinity ([S124P] BB3* receptor): 54 fold
- decrease in affinity ([R127K] BB3* receptor): 45 fold
- decrease in affinity [10]: > 526 fold
- decrease in affinity ([R127N] BB3* receptor): 78 fold
- decrease in affinity [11]: 12 fold
- decrease in affinity ([R127H] BB3* receptor): 192 fold
- decrease in affinity [12]: 175 fold
- decrease in affinity [13]: > 192 fold
- decrease in affinity [14]: 45 fold
- decrease in affinity ([15]; E111D or G112R BB3 receptor mutants): 1 to 2.5 fold
- loss in affinity ([15]; [G112R] in wild type and BB3* receptor): 2 fold and 2–3 fold
- decrease in affinity ([15]; [H107F] and [H107Y] in BB3*): 7–16 fold
- decrease in affinity ([15]; [H107K, E111D, G112R] in wild type and BB3*): 500 fold and > 500 fold
- decrease in affinity ([15]; [H107K], BB3 and BB3* not separated): 60 fold and 35–54 fold and 50 fold
- decrease in affinity ([15]; [H107N] in either BB3 or BB3*): > 58 fold
- decrease in affinity ([15]; [H107W], background not separated): > 190 times
- decrease in affinity ([15]; [H107Y] and [H107F] in either BB3 or BB3*): 4–16 fold and 5–17 fold
- decrease in affinity ([15]; [L123I, R127Q] in wild type and BB3*): > 2,000 fold
- decrease in affinity ([15]; [R127E] in wild type and BB3*): 188 fold and > 200 fold
- decrease in affinity ([15]; [R127Q], [L123I] and [S124P] in wild type BB3): 233–536 fold
- decrease in affinity ([15]; [R127Q], background not separated): 400 fold and > 390 fold and > 400 fold
- Ki ([15]; read-out: Ki (range given), [G112R] in wild type and BB3* receptor): 11.6 to 16 nM
- decrease in affinity ([15]; single EC1 amino acid substitutions alone): 1.4–54 fold

Source: publication PMC4980153 (Biochemical pharmacology, 2016)
